Test results taken from publication PMC4744035, “In Vivo, In Vitro, and In Silico Characterization of Peptoids as Antimicrobial Agents” (PLoS ONE, 2016).
In brackets after ≈: the same amount, converted by molar mass. Numbered stars: 1 amine (or outer) side, 2 acyl side, 3 side chain; on linkers, the order of the positions; unused ones are H or OH. Square brackets hold non-standard residues; d marks the D form. Peptide text beside a SMILES is read from it. X2 = C[C@@H](c1cccc2ccccc12)N(CC(=O)[*:2])[*:1]; Nspe = C[C@H](NCC(=O)O)c1ccccc1; Nphe = O=C(O)CNCc1ccccc1; Nlys = NCCCCNCC(=O)O

Legend:
[1] = system: P. aeruginosa H103 (wild type); assay: microbe, parasite or virus in culture; settings: H103 (wild type)
Procedure: (§1) The MICs of test agents were measured using a modified broth micro-dilution method in Difco Mueller Hinton medium, on a panel of bacterial pathogens that were both susceptible and resistant to common antibiotics (S1 File). Briefly, serial dilutions were performed in 0.01% acetic acid containing 0.2% bovine serum albumin at 10-fold the desired final concentration. Ten μL of the 10-fold concentrated test reagents were added to each well of a 96-well polypropylene microtitre plate containing 90 μL of Mueller Hinton media per well. Bacteria were added to the plate from an overnight culture at a final concentration of 2–7 x 10^5 CFU/mL and incubated overnight at 37°C. The MIC is defined as the concentration at which no growth was observed.
(§2) Screening of peptoid antimicrobial activity against a panel of multidrug resistant superbugs was done according to the protocol described in the manuscript. The bacterial strains used in this panel included; P. aeruginosa PAO1 strain H103 [1], P. maltophilia ATCC#13637, S. aureus ATCC#25923 [1], E. faecalis ATCC#29212 [2], and E. cloacae 218R, constitutively expressing Class C chromosomal β-lactamase, were from the Hancock lab strains collection. An MRSA clinical isolate was kindly provided by Anthony Chow (Vancouver General Hospital, Vancouver, Canada). Two Klebsiella pneumoniae and two E. coli clinical isolates expressing extended spectrum β-lactamases (ESBL) were kindly provided by George Zhanel (Health Sciences Centre, Winnipeg, Canada). Vancomycin-resistant clinical isolates of Enterococcus faecalis and E. faecium were obtained from Ana M. Paccagnella (BC Centre for Disease Control, Vancouver, Canada). Three clinical isolates (#9, #198 and #213) of multi-drug resistant P. aeruginosa, were kindly provided by Carlos Kiffer (University of São Paulo, Brazil). […] Three P. aeruginosa clinical isolates of the Liverpool epidemic strain (LES) (H1027, H1030 and LES400) were all kindly provided by Craig Winstanley (University of Liverpool, UK). […] All tested bacterial strains were categorized as biohazard level 2 pathogens.

P. aeruginosa 198 (MDR) = assay: microbe, parasite or virus in culture; settings: 198 (MDR)
Procedure: as §1, §2

[2] = system: P. aeruginosa LES400 (MDR); assay: microbe, parasite or virus in culture; settings: LES400 (MDR)
Procedure: as §1, §2

E. faecium T62764 (VRE) = assay: microbe, parasite or virus in culture; settings: T62764 (VRE)
Procedure: as §1, §2

E. faecium mic80 (VRE) = assay: microbe, parasite or virus in culture; settings: mic80 (VRE)
Procedure: as §1, §2

[3] = system: K. pneumonia 61962 (ESBL); assay: microbe, parasite or virus in culture
Procedure: as §1, §2

P. aeruginosa 213 (MDR) = assay: microbe, parasite or virus in culture; settings: 213 (MDR)
Procedure: as §1, §2

E. faecalis ATCC29212 = assay: microbe, parasite or virus in culture; settings: ATCC29212
Procedure: as §1, §2

E. faecalis F43559 (VRE) = assay: microbe, parasite or virus in culture; settings: F43559 (VRE)
Procedure: as §1, §2

P. aeruginosa 9 (MDR) = assay: microbe, parasite or virus in culture; settings: 9 (MDR)
Procedure: as §1, §2

E. coli 64771 (ESBL) = assay: microbe, parasite or virus in culture; settings: 64771 (ESBL)
Procedure: as §1, §2

P. maltophilia ATCC13637 = assay: microbe, parasite or virus in culture; settings: ATCC13637
Procedure: as §1, §2

E. faecalis W61950 (VRE) = assay: microbe, parasite or virus in culture; settings: W61950 (VRE)
Procedure: as §1, §2

E. coli 63103 (ESBL) = assay: microbe, parasite or virus in culture; settings: 63103 (ESBL)
Procedure: as §1, §2

[4] = system: P. aeruginosa H1030 (MDR); assay: microbe, parasite or virus in culture; settings: P. aeruginosa H1030 (MDR)
Procedure: as §1, §2

S. aureus ATCC25923 = assay: microbe, parasite or virus in culture; settings: ATCC25923
Procedure: as §1, §2

[5] = system: K. pneumonia 63575 (ESBL); assay: microbe, parasite or virus in culture
Procedure: as §1, §2

[6] = system: P. aeruginosa H1027 (MDR); assay: microbe, parasite or virus in culture; settings: H1027 (MDR)
Procedure: as §1, §2

[7] = system: E. cloacae 218R Class C β-lactamase; assay: microbe, parasite or virus in culture; settings: 218R Class C β-lactamase
Procedure: as §1, §2

S. aureus C623 (MRSA) = assay: microbe, parasite or virus in culture; settings: C623
Procedure: as §1, §2

E. coli ATCC 35218 = assay type: cell-based
Procedure: MICs against B. subtilis and E. coli screening bacterial strains were determined using serial dilution in 96-well microtiter plates in accordance with CLSI M7-A6 protocols. Briefly, peptoid solution in cation-adjusted Mueller-Hinton broth was prepared by 2:1 serial dilution with a total volume of 50 µL per well. In experimental wells, 50 µL of bacterial inoculums (1 x 10^6 CFU/mL) were added to the peptoid solutions. Positive controls consisted of 50 µL inoculums added to 50 µL cation-adjusted Mueller-Hinton broth containing no peptoid, while negative controls contained only cation-adjusted Mueller-Hinton broth. […] Experiments were reproducible among three independent replicates, each consisting of two parallel trials.

erythrocytes = assay: Hemolytic activity (HD10/HD50); assay type: cell-based
Description: Table 1 Characteristics of antimicrobial peptoids, screened for activity against B. subtilis and E. coli bacterial strains. | column: HD10 / HD50

| Compound | MIC [1] [µg/mL] | MIC (P. aeruginosa 198 (MDR)) [µg/mL] | MIC [2] [µg/mL] | MIC (E. faecium T62764 (VRE)) [µg/mL] | MIC (E. faecium mic80 (VRE)) [µg/mL] | MIC [3] [µg/mL] | MIC (P. aeruginosa 213 (MDR)) [µg/mL] | MIC (E. faecalis ATCC29212) [µg/mL] | MIC (E. faecalis F43559 (VRE)) [µg/mL] | MIC (P. aeruginosa 9 (MDR)) [µg/mL] | MIC (E. coli 64771 (ESBL)) [µg/mL] | MIC (P. maltophilia ATCC13637) [µg/mL] | MIC (E. faecalis W61950 (VRE)) [µg/mL] | MIC (E. coli 63103 (ESBL)) [µg/mL] | MIC [4] [µg/mL] | MIC (S. aureus ATCC25923) [µg/mL] | MIC [5] [µg/mL] | MIC [6] [µg/mL] | MIC [7] [µg/mL] | MIC (S. aureus C623 (MRSA)) [µg/mL] | other results |
| --- | --- | --- | --- | --- | --- | --- | --- | --- | --- | --- | --- | --- | --- | --- | --- | --- | --- | --- | --- | --- | --- |
| C[C@@H](c1ccccc1)N(CC(N)=O)C(=O)CN(C(=O)CN(CCCCN)C(=O)CN(Cc1ccccc1)C(=O)CN(Cc1ccccc1)C(=O)CN(CCCCN)C(=O)CN(C(=O)CN(C(=O)CN(CCCCN)C(=O)CN(Cc1ccccc1)C(=O)CN(Cc1ccccc1)C(=O)CNCCCCN)[C@@H](C)c1ccccc1)[C@@H](C)c1ccccc1)[C@@H](C)c1ccccc1 [1-Npm2,3,8,9, H-(NLys-Npm-Npm-NLys-Nspe-Nspe)2-NH2] | 4 (≈ 2.27 µM) | 8 (≈ 4.54 µM) | 4 (≈ 2.27 µM) | 1 (≈ 0.567 µM) | 4 (≈ 2.27 µM) | 32 (≈ 18.1 µM) | 4 (≈ 2.27 µM) | 4 (≈ 2.27 µM) | 8 (≈ 4.54 µM) | 64 (≈ 36.3 µM) | 4 (≈ 2.27 µM) | 1 (≈ 0.567 µM) | 8 (≈ 4.54 µM) | 8 (≈ 4.54 µM) | 16 (≈ 9.07 µM) | 2 (≈ 1.13 µM) | 16 (≈ 9.07 µM) | 2 (≈ 1.13 µM) | 8 (≈ 4.54 µM) | 2 (≈ 1.13 µM) | MIC E. coli (E. coli ATCC 35218): 6.3 µM (≈ 11.1 µg/mL); HD10 (hemolytic activity) (erythrocytes): 39; HD50 (hemolytic activity) (erythrocytes): > 200 |
| C[C@@H](c1ccccc1)N(CC(N)=O)C(=O)CN(Cc1ccccc1)C(=O)CN(CCCCN)C(=O)CN(C(=O)CN(Cc1ccccc1)C(=O)CN(CCCCN)C(=O)CN(C(=O)CN(Cc1ccccc1)C(=O)CN(CCCCN)C(=O)CN(C(=O)CN(Cc1ccccc1)C(=O)CNCCCCN)[C@@H](C)c1ccccc1)[C@@H](C)c1ccccc1)[C@@H](C)c1ccccc1 [1-Npm2,5,8,11, H-(NLys-Npm-Nspe)4-NH2] (H-[Nlys][Nphe][Nspe][Nlys][Nphe][Nspe][Nlys][Nphe][Nspe][Nlys][Nphe][Nspe]-NH2) | 4 (≈ 2.27 µM) | 8 (≈ 4.54 µM) | 8 (≈ 4.54 µM) | 1 (≈ 0.567 µM) | 4 (≈ 2.27 µM) | 32 (≈ 18.1 µM) | 4 (≈ 2.27 µM) | 4 (≈ 2.27 µM) | 4 (≈ 2.27 µM) | 64 (≈ 36.3 µM) | 4 (≈ 2.27 µM) | 2 (≈ 1.13 µM) | 16 (≈ 9.07 µM) | 8 (≈ 4.54 µM) | 16 (≈ 9.07 µM) | 4 (≈ 2.27 µM) | 16 (≈ 9.07 µM) | 2 (≈ 1.13 µM) | 8 (≈ 4.54 µM) | 8 (≈ 4.54 µM) | MIC E. coli (E. coli ATCC 35218): 6.3 µM (≈ 11.1 µg/mL); HD10 (hemolytic activity) (erythrocytes): 87; HD50 (hemolytic activity) (erythrocytes): > 200 |
| C[C@@H](c1ccccc1)N(CC(=O)N(CCCCN)CC(=O)N(CC(=O)N(CC(=O)N(CCCCN)CC(=O)N(CC(=O)N(CC(=O)N(CCCCN)CC(=O)N(CC(=O)N(CC(N)=O)[C@@H](C)c1cccc2ccccc12)[C@@H](C)c1ccccc1)[C@@H](C)c1ccccc1)[C@@H](C)c1ccccc1)[C@@H](C)c1cccc2ccccc12)[C@@H](C)c1ccccc1)C(=O)CN(C(=O)CNCCCCN)[C@@H](C)c1ccccc1 [1-Nsna6,12, H-(NLys-Nspe-Nspe-NLys-Nspe-Nsna)2-NH2] (H-[Nlys][Nspe][Nspe][Nlys][Nspe][X2][Nlys][Nspe][Nspe][Nlys][Nspe][X2]-NH2) | 4 (≈ 2.08 µM) | 16 (≈ 8.34 µM) | 8 (≈ 4.17 µM) | 2 (≈ 1.04 µM) | 4 (≈ 2.08 µM) | 64 (≈ 33.3 µM) | 8 (≈ 4.17 µM) | 4 (≈ 2.08 µM) | 8 (≈ 4.17 µM) | 128 (≈ 66.7 µM) | 8 (≈ 4.17 µM) | 1 (≈ 0.521 µM) | 16 (≈ 8.34 µM) | 16 (≈ 8.34 µM) | 32 (≈ 16.7 µM) | 4 (≈ 2.08 µM) | 32 (≈ 16.7 µM) | 2 (≈ 1.04 µM) | 32 (≈ 16.7 µM) | 4 (≈ 2.08 µM) |  |
